From patent publication US7390806B2, “Antibiotics containing borinic acid complexes and methods of use” (Anacor Pharmaceuticals, Inc., priority 2002, dated 2008)
Converted amounts (≈) assume the structure as drawn.

Columns and labels:
M. tuberculosis P2SP1 = test: Anti-mycobacterium in vitro activity, P2SP1; type: cell-based, Mycobacterium tuberculosis; settings: Multi-drug resistant strain; for MIC: Mycobacterium tuberculosis, P2SP1
M. tuberculosis P1SP2 = test: Anti-mycobacterium in vitro activity, P1SP2; type: cell-based, Mycobacterium tuberculosis; settings: Multi-drug resistant strain; for MIC: Mycobacterium tuberculosis, P1SP2

Structure (SMILES)	M. tuberculosis MIC P2SP1 (M. tuberculosis P2SP1)	M. tuberculosis MIC P1SP2 (M. tuberculosis P1SP2)	MIC (M. tuberculosis P2SP1)	MIC (M. tuberculosis P1SP2)
Oc1cccc2cccnc12 [Compound 10, 8-hydroxyquinoline]	0.387 µg/mL	0.387 µg/mL	–	–
Oc1cccc2cccnc12 [Compound 50, 8-hydroxyquinoline]	0.387 µg/mL	0.387 µg/mL	–	–
Oc1cccc2cccnc12 [Compound 51, 8-hydroxyquinoline]	0.387 µg/mL	0.387 µg/mL	–	–
Oc1cccc2cccnc12 [Compound 53, 8-hydroxyquinoline]	0.775 µg/mL	0.387 µg/mL	–	–
Oc1cccc2cccnc12 [Compound 55, 8-hydroxyquinoline]	0.775 µg/mL	0.387 µg/mL	–	–
Oc1cccc2cccnc12 [Compound 65, 8-hydroxyquinoline]	0.775 µg/mL	0.775 µg/mL	–	–
Oc1cccc2cccnc12 [Compound 72, 8-hydroxyquinoline]	0.775 µg/mL	0.775 µg/mL	–	–
Oc1cccc2cccnc12 [Compound 75, 8-hydroxyquinoline]	0.775 µg/mL	0.775 µg/mL	–	–
CC[C@@H](CO)NCCN[C@@H](CC)CO [Ethambutol]	–	–	8 µg/mL (≈ 39.2 µM)	8 µg/mL (≈ 39.2 µM)
CCc1cc(C(N)=S)ccn1 [Ethionamide]	–	–	> 64 µg/mL	32 µg/mL (≈ 192 µM)
NNC(=O)c1ccncc1 [Isoniazid (INH), Isoniazid]	–	–	> 8 µg/mL	> 8 µg/mL
NC[C@H]1O[C@H](O[C@H]2[C@H](O)[C@@H](O[C@H]3O[C@H](CO)[C@@H](O)[C@H](N)[C@H]3O)[C@H](N)C[C@@H]2N)[C@H](O)[C@@H](O)[C@@H]1O [Kanamycin]	–	–	< 2 µg/mL	< 2 µg/mL
CC1COc2c(N3CCN(C)CC3)c(F)cc3c(=O)c(C(=O)O)cn1c23 (stereo not shown) [Ofloxacin]	–	–	32 µg/mL (≈ 88.6 µM)	16 µg/mL (≈ 44.3 µM)
CO[C@H]1/C=C/O[C@@]2(C)Oc3c(C)c(O)c4c(O)c(c(/C=N/N5CCN(C)CC5)c(O)c4c3C2=O)NC(=O)/C(C)=C\C=C\[C@H](C)[C@H](O)[C@@H](C)[C@@H](O)[C@@H](C)[C@H](OC(C)=O)[C@@H]1C [Rifampicin]	–	–	16 µg/mL (≈ 19.4 µM)	> 16 µg/mL
[H]/N=C(/N)N[C@H]1[C@H](O)[C@@H](O)[C@H](O[C@@H]2O[C@@H](C)[C@](O)(C=O)[C@H]2O[C@@H]2O[C@@H](CO)[C@H](O)[C@@H](O)[C@@H]2NC)[C@@H](N/C(N)=N\[H])[C@@H]1O [Streptomycin]	–	–	< 2 µg/mL	< 2 µg/mL
N[C@@H]1CON=C1O [cycloserine]	–	–	8 µg/mL (≈ 78.4 µM)	8 µg/mL (≈ 78.4 µM)
Nc1ccc(C(=O)O)c(O)c1 [p-aminosalicylate]	32 µg/mL	16 µg/mL	–	–
